Source: patent publication US11033527B2, “Non-hormonal treatment of the genitourinary syndrome of menopause” (IMMUGEN PHARMA LLC, priority 2018, dated 2021)
“And” between values parts separate entries of the source, which are not always exact repeats. Equal entries are not always repeated.

How the values were obtained:
[1] = target: endocannabinoid receptor type 2 (CB2) (Homo sapiens, UniProt P34972); conditions: cited from earlier work
EpiVaginal tissues = test: macrophage infiltration in treated EpiVaginal tissues (barrier function), four hours in the presence of TNF-α; format: cell-based; conditions: vs. 28% into the untreated tissue; macrophages cultured with the tissue for four hours in the presence of TNF-α
Source text: FIG. 1 is a graph showing macrophage infiltration in hormone (estrogen) and L759,633-treated EpiVaginal tissues. L759,633 had the most striking effect on macrophage infiltration: only 6% of cells infiltrated into the tissue past 90 μm (vs. 28% into the untreated tissue, p<0.006 ANOVA). […] U=untreated control; E=estradiol; P=progesterone; and IMG=the cannabinoid L759,633.
Many of the above-noted genes are differentially regulated by estradiol in menopausal tissue. […] With respect to the barrier function, only 6% of macrophages which had been cultured with the tissue for four hours in the presence of TNF-α were capable of infiltrating into the tissue past 90 um (vs. 28% into the untreated tissue, p<0.006 ANOVA). […] This would indicate that the increased gene expression of the proteins involved with cross-linking of the keratin fibers, filagrins and desmosomal cadherins are all contributing to the fortification of the vaginal mucosa which would prevent the infiltration of pathogens and prevent the loss of solutes and water from within the tissue.

vaginal tissue construct = test: microarray analysis of differential gene expression (Affymetrix Human Gene 1.0 ST arrays), tissues treated for seven days via culture medium; format: cell-based
Source text: The data from the Affymetrix Human Gene 1.0 ST arrays were normalized using the Robust Multiarray Average (RMA) algorithm and a Chip Definition File (CDF) that maps the probes on the array to unique Entrez Gene identifiers. The result is a matrix in which each column corresponds to a sample. The expression values are log 2-transformed by default.
By using a fold change >1.5, an analysis of differentially expressed genes was done to identify those genes which were involved in the cornified envelope, keratinocyte differentiation, cell differentiation, epidermis development, epithelial cell differentiation, junctional proteins and signaling, immune response and innate immune response.

[2] = down-regulated by this fold, given without sign

Sequence of endocannabinoid receptor type 2 (CB2) (P34972 whole entry, species assumed): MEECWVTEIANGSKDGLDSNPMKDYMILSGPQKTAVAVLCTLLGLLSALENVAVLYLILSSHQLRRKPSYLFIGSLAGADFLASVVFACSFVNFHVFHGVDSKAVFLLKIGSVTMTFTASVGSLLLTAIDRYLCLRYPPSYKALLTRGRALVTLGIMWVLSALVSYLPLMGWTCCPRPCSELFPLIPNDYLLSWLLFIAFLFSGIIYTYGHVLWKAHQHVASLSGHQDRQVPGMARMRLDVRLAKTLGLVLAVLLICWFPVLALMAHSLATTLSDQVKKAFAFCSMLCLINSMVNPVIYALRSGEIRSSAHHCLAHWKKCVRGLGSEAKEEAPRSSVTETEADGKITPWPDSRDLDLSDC

## CCCCCCC(C)(C)c1cc(OC)c2c(c1)OC(C)(C)[C@@H]1CC=C(C)C[C@@H]21 [L759,633]
[1]
  agonist type by receptor internalization: partial agonist
EpiVaginal tissues
  macrophages infiltrated into the tissue past 90 μm: 6%
Vaginal tissue construct
  SPRR2D Fold Change: 3.431 fold
  WFDC12 Fold Change: 7.884 fold
Vaginal tissue construct; [2]
  CFB down-regulation: 2.285 fold
  CFH down-regulation: 1.769 fold
Vaginal tissue construct; gene Anterior gradient homolog 2 (Xenopus laevis)
  AGR2 Fold Change: −3.1 fold
Vaginal tissue construct; gene C-X-C motif chemokine ligand 8
  CXCL8 Expr Fold Change: −2.298 fold
Vaginal tissue construct; gene C-X-C motif chemokine ligand 17
  CXCL17 Expr Fold Change: −2.038 fold
Vaginal tissue construct; gene C-X-C motif chemokine receptor 2
  CXCR2 Expr Fold Change: 1.871 fold
Vaginal tissue construct; gene CD14 molecule
  CD14 Expr Fold Change: −2.154 fold
Vaginal tissue construct; gene CD74 molecule
  CD74 Expr Fold Change: −2.103 fold
Vaginal tissue construct; gene CD151 molecule (Raph blood group)
  CD151 Expr Fold Change: −1.664 fold
Vaginal tissue construct; gene CD244 molecule
  CD244 Expr Fold Change: 2.837 fold
Vaginal tissue construct; gene Corneodesmosin
  CDSN Fold Change: 9.465 fold
Vaginal tissue construct; gene C−C motif chemokine ligand 28
  CCL28 Expr Fold Change: −2.504 fold
Vaginal tissue construct; gene FYN binding protein 1
  FYB1 Expr Fold Change: −2.604 fold
Vaginal tissue construct; gene Interferon Epsilon
  IFNE Fold Change: 5.496 fold
Vaginal tissue construct; gene Interleukin 19
  IL19 Fold Change: −3.5 fold
Vaginal tissue construct; gene NLR family pyrin domain containing 10
  NLRP10 Fold Change: 15.93 fold
Vaginal tissue construct; gene RNAse family
  RNAse7 Fold Change: 8.158 fold
Vaginal tissue construct; gene T cell lymphoma invasion and metastasis 1
  TIAM1 Expr Fold Change: 2.249 fold
Vaginal tissue construct; gene TNF alpha induced protein 8
  TNFAIP8 Expr Fold Change: −1.601 fold
Vaginal tissue construct; gene TNF receptor superfamily member 10c
  TNFRSF10C Expr Fold Change: −2.458 fold
Vaginal tissue construct; gene TNF receptor superfamily member 11b
  TNFRSF11B Expr Fold Change: −2.012 fold
Vaginal tissue construct; gene Tetraspanin 1
  TSPAN1 Fold Change: −2.3 fold
Vaginal tissue construct; gene Transglutaminase 1
  TGM1 Fold Change: 1.966 fold
Vaginal tissue construct; gene Transglutaminase 3
  TGM3 Fold Change: 30.074 fold and 30.1 fold
Vaginal tissue construct; gene Transglutaminase 5
  TGM5 Fold Change: 2.237 fold
Vaginal tissue construct; gene Tripartite motif-containing 31
  TRIM31 Fold Change: −5.9 fold
Vaginal tissue construct; gene V-set domain containing T cell activation inhibitor 1
  VTCN1 Expr Fold Change: −4.666 fold
Vaginal tissue construct; gene WAP four-disulfide core domain 2
  WFDC2 Fold Change: −2.8 fold
Vaginal tissue construct; gene WAP four-disulfide core domain 5
  WFDC5 Fold Change: 3.139 fold
Vaginal tissue construct; gene arachidonate 12-lipoxygenase, 12R type
  ALOX12B Fold Change: 6.6 fold and 6.683 fold
Vaginal tissue construct; gene arachidonate 12-lipoygenase
  ALOX12 Fold Change: 1.5 fold
Vaginal tissue construct; gene arachidonate lipoxygenase 3
  ALOXE3 Fold Change: 3.659 fold
Vaginal tissue construct; gene arginosuccinate synthetase 1
  ASS1 Fold Change: −2.8 fold
Vaginal tissue construct; gene claudin 17
  CLDN17 Fold Change: 11 fold
Vaginal tissue construct; gene coiled-coil domain containing 59
  CCDC59 Expr Fold Change: −1.795 fold
Vaginal tissue construct; gene colony stimulating factor 2 receptor beta common subunit
  CSF2RB Expr Fold Change: 2.79 fold
Vaginal tissue construct; gene complement factor H
  CFH Expr Fold Change: −1.769 fold
Vaginal tissue construct; gene cornifelin
  CNFN Fold Change: 1.62 fold
Vaginal tissue construct; gene cysteine-rich C-terminal 1
  CRCT1 Fold Change: 2.6 fold
Vaginal tissue construct; gene dermokine
  DMKN Fold Change: 2.362 fold
Vaginal tissue construct; gene descmocollin 3
  DCS3 Fold Change: 1.9 fold
Vaginal tissue construct; gene desmocollin 1
  DSC1 Fold Change: 10.494 fold
Vaginal tissue construct; gene desmocollin 2
  DSC2 Fold Change: 1.7 fold
Vaginal tissue construct; gene desmoglein 1
  DSG1 Fold Change: 9.191 fold and 8.7 fold
Vaginal tissue construct; gene filaggrin
  FLG Fold Change: 4.549 fold
Vaginal tissue construct; gene filaggrin family member 2
  FLG2 Fold Change: 10.449 fold
Vaginal tissue construct; gene glycogen synthase 2 (liver)
  GYS2 Fold Change: 2.9 fold
Vaginal tissue construct; gene human keratinocyte proline rich protein
  KPRP Fold Change: 25.318 fold and 25.3 fold
Vaginal tissue construct; gene interferon induced protein with tetratricopeptide repeats 5
  IFIT5 Expr Fold Change: −2.183 fold
Vaginal tissue construct; gene interferon induced with helicase C domain 1
  IFIH1 Expr Fold Change: −1.922 fold
Vaginal tissue construct; gene interferon regulatory factor 1
  IRF1 Expr Fold Change: −3.253 fold
Vaginal tissue construct; gene interferon regulatory factor 9
  IRF9 Expr Fold Change: −1.535 fold
Vaginal tissue construct; gene interleukin 1 receptor like 2
  IL1RL2 Expr Fold Change: 2.508 fold
Vaginal tissue construct; gene interleukin 7 receptor
  IL7R Expr Fold Change: −2.852 fold
Vaginal tissue construct; gene interleukin 18 binding protein
  IL18BP Expr Fold Change: 1.532 fold
Vaginal tissue construct; gene interleukin 23 subunit alpha
  IL23A Expr Fold Change: 2.677 fold
Vaginal tissue construct; gene interleukin 33
  IL33 Expr Fold Change: −3.109 fold
Vaginal tissue construct; gene interleukin 36 alpha
  IL36A Expr Fold Change: 4.185 fold
Vaginal tissue construct; gene interleukin 36 receptor antagonist
  IL36RN Expr Fold Change: 4.668 fold
Vaginal tissue construct; gene kallikrein related peptidase 6
  KLK6 Fold Change: 4.651 fold
Vaginal tissue construct; gene kallikrein related peptidase 8
  KLK8 Fold Change: 1.842 fold
Vaginal tissue construct; gene kallikrein related peptidase 10
  KLK10 Fold Change: 2.554 fold
Vaginal tissue construct; gene kallikrein related peptidase 12
  KLK12 Fold Change: 3.933 fold
Vaginal tissue construct; gene kallikrein related peptidase 13
  KLK13 Fold Change: 3.957 fold
Vaginal tissue construct; gene keratin 1
  KRT1 Fold Change: 10.739 fold and 10.5 fold
Vaginal tissue construct; gene keratin 2
  KRT2 Fold Change: 1.801 fold
Vaginal tissue construct; gene keratin 20
  KRT20 Fold Change: −3.42 fold
Vaginal tissue construct; gene keratin 23
  KRT23 Fold Change: 1.912 fold
Vaginal tissue construct; gene keratin 24
  KRT24 Fold Change: 1.619 fold
Vaginal tissue construct; gene keratinocyte differentiation associated protein
  KRTDAP Fold Change: 15.751 fold and 15.7 fold
Vaginal tissue construct; gene late cornified envelope 1A
  LCE1A Fold Change: 1.884 fold
Vaginal tissue construct; gene late cornified envelope 1C
  LCE1C Fold Change: 4.063 fold
Vaginal tissue construct; gene late cornified envelope 1F
  LCE1F Fold Change: 1.593 fold
Vaginal tissue construct; gene late cornified envelope 2A
  LCE2A Fold Change: 6.392 fold
Vaginal tissue construct; gene late cornified envelope 2B
  LCE2B Fold Change: 11.182 fold
Vaginal tissue construct; gene late cornified envelope 2D
  LCE2C/LCE2D Fold Change: 24.247 fold
Vaginal tissue construct; gene late cornified envelope 3D
  LCE3D Fold Change: 15.6 fold
Vaginal tissue construct; gene late cornified envelope 3E
  LCE3E Fold Change: 16 fold
Vaginal tissue construct; gene late cornified envelope 5A
  LCE5A Fold Change: 1.63 fold
Vaginal tissue construct; gene lipase family member M
  LIPM Fold Change: 11.426 fold
Vaginal tissue construct; gene lipase family member N
  LIPN Fold Change: 7.346 fold
Vaginal tissue construct; gene lipin 1
  LIPN1 Fold Change: 3.775 fold
Vaginal tissue construct; gene loricrin
  LOR Fold Change: 7.932 fold
Vaginal tissue construct; gene lymphocyte antigen 6 family member G6C
  LY6G6C Expr Fold Change: 6.538 fold
Vaginal tissue construct; gene major histocompatibility complex, class C
  HLA-C Expr Fold Change: −1.691 fold
Vaginal tissue construct; gene major histocompatibility complex, class I, B
  HLA-B Expr Fold Change: −2.168 fold
Vaginal tissue construct; gene major histocompatibility complex, class II, DM beta
  HLA-DMB Expr Fold Change: −1.591 fold
Vaginal tissue construct; gene major histocompatibility complex, class II, DP alpha 1
  HLA-DPA1 Expr Fold Change: −1.7 fold
Vaginal tissue construct; gene major histocompatibility complex, class II, DR alpha
  HLA-DRA Expr Fold Change: −2.792 fold
Vaginal tissue construct; gene major histocompatibility complex, class II, DR beta 6 (pseudogene)
  HLA-DRB6 Expr Fold Change: −2.7 fold
Vaginal tissue construct; gene malic enzyme 1, NADP(+)-dependent cytosolic
  ME1 Fold Change: 2.9 fold
Vaginal tissue construct; gene mucin like 1
  MUCL1 Fold Change: ~2 fold and 1.964 fold
Vaginal tissue construct; gene natural killer cell cytotoxicity receptor 3 ligand 1
  NCR3LG1 Expr Fold Change: 2.482 fold
Vaginal tissue construct; gene nuclear factor of activated T cells 5
  NFAT5 Expr Fold Change: 2.265 fold
Vaginal tissue construct; gene olfactomedin 4
  OLFM4 Expr Fold Change: −6.772 fold
Vaginal tissue construct; gene pancreatic lipase-related protein 3
  PNLIPRP3 Fold Change: 1.6 fold
Vaginal tissue construct; gene phospholipase A2 group IIF
  PLA2G2F Fold Change: 2.054 fold
Vaginal tissue construct; gene phospholipase A2 group III
  PLA2G3 Fold Change: 2.218 fold
Vaginal tissue construct; gene phospholipase A2 group IVD
  PLA2G4D Fold Change: 3.526 fold
Vaginal tissue construct; gene phospholipase A2 group IVE
  PLA2G4E Fold Change: 3.36 fold
Vaginal tissue construct; gene phospholipase A2 group X
  PLA2G10 Fold Change: −3.027 fold
Vaginal tissue construct; gene placenta-specific 8
  PLAC8 Fold Change: −3.3 fold
Vaginal tissue construct; gene polymeric immunoglobulin receptor
  PIGR Fold Change: −2.4 fold
Vaginal tissue construct; gene programmed cell death 1 ligand 2
  PDCD1LG2 Expr Fold Change: −1.74 fold
Vaginal tissue construct; gene ribosomal protein S15a
  RPS15A Expr Fold Change: −1.78 fold
Vaginal tissue construct; gene serpin family B member 12
  SERPINB12 Fold Change: 5.202 fold and 5.1 fold
Vaginal tissue construct; gene signal transducer and activator of transcription 4
  STAT4 Expr Fold Change: −2.518 fold
Vaginal tissue construct; gene small proline rich protein 2G
  SPRR2G Fold Change: 10.387 fold
Vaginal tissue construct; gene small proline rich protein 4
  SPRR4 Fold Change: 2.619 fold
Vaginal tissue construct; gene suprabasin
  SBSN Fold Change: 4.36 fold and 4.3 fold
Vaginal tissue construct; gene toll like receptor 3
  TLR3 Expr Fold Change: −3.274 fold
Vaginal tissue construct; gene transient receptor potential cation channel subfamily V member 3
  TRPV3 Fold Change: 2.8 fold and 2.804 fold
Vaginal tissue construct; gene ubiquitin like modifier activating enzyme 7
  UBA7 Expr Fold Change: −2.031 fold
Vaginal tissue construct; gene vascular endothelial growth factor A
  VEGFA Fold Change: 2.0 fold and 1.885 fold
Vaginal tissue construct; microRNA 23a
  mir-23 Expr Fold Change: 2.823 fold
Vaginal tissue construct; microRNA 224
  mir-224 Expr Fold Change: 6.266 fold
Vaginal tissue construct; result in words
  MMP10 expression: downregulated
